In ChEMBL document CHEMBL3046208, “Natural and synthetic podolactones with potential use as natural herbicide models” (2000):
The source made the active and inactive calls. The calls are words filed in the database; no cut-off is given here.

Experiments:
Assay type in all cases: functional
Lactuca sativa [1] = assay: Stimulation of germination of Lactuca sativa cv. Roman (lettuce) at 0.1 mM after 5 days relative to untreated control
Hordeum vulgare [2] = assay: Stimulation of shoot length of Hordeum vulgare (barley) at 0.1 mM after 5 days relative to untreated control
Hordeum vulgare [3] = assay: Inhibition of root length of Hordeum vulgare (barley) at 0.1 mM after 5 days relative to untreated control; details: 120 h
Lepidium sativum [4] = assay: Inhibition of shoot length of Lepidium sativum at 0.1 mM after 5 days relative to untreated control; details: 120 h
Solanum lycopersicum [5] = assay: Inhibition of germination of Solanum lycopersicum (tomato) at 0.1 mM after 5 days relative to untreated control
Solanum lycopersicum [6] = assay: Inhibition of root length of Solanum lycopersicum (tomato) at 0.1 mM after 5 days relative to untreated control; details: 120 h
Lepidium sativum [7] = assay: Stimulation of germination of Lepidium sativum at 0.1 mM after 5 days relative to untreated control
Hordeum vulgare [8] = assay: Inhibition of shoot length of Hordeum vulgare (barley) at 0.1 mM after 5 days relative to untreated control; details: 120 h
Allium cepa [9] = assay: Inhibition of shoot length of Allium cepa (onion) at 0.1 mM after 5 days relative to untreated control; details: 120 h
Triticum aestivum [10] = assay: Inhibition of shoot length of Triticum aestivum (wheat) at 0.1 mM after 5 days relative to untreated control
Solanum lycopersicum [11] = assay: Stimulation of shoot length of Solanum lycopersicum (tomato) at 0.1 mM after 5 days relative to untreated control
Lactuca sativa [12] = assay: Inhibition of shoot length of Lactuca sativa cv. Roman (lettuce) at 0.1 mM after 5 days relative to untreated control
Allium cepa [13] = assay: Stimulation of root length of Allium cepa (onion) at 0.1 mM after 5 days relative to untreated control
Lactuca sativa [14] = assay: Stimulation of shoot length of Lactuca sativa cv. Roman (lettuce) at 0.1 mM after 5 days relative to untreated control
Lactuca sativa [15] = assay: Stimulation of shoot length of Lactuca sativa cv. Nigra (lettuce) at 0.1 mM after 5 days relative to untreated control
Allium cepa [16] = assay: Inhibition of root length of Allium cepa (onion) at 0.1 mM after 5 days relative to untreated control
Solanum lycopersicum [17] = assay: Stimulation of germination of Solanum lycopersicum (tomato) at 0.1 mM after 5 days relative to untreated control
Solanum lycopersicum [18] = assay: Stimulation of root length of Solanum lycopersicum (tomato) at 0.1 uM after 5 days relative to untreated control
Triticum aestivum [19] = assay: Inhibition of germination of Triticum aestivum (wheat) at 0.1 mM after 5 days relative to untreated control
Lactuca sativa [20] = assay: Stimulation of root length of Lactuca sativa cv. Roman (lettuce) at 0.1 mM after 5 days relative to untreated control
Lactuca sativa [21] = assay: Stimulation of root length of Lactuca sativa cv. Nigra (lettuce) at 0.1 mM after 5 days relative to untreated control
Lactuca sativa [22] = assay: Inhibition of germination of Lactuca sativa cv. Roman (lettuce) at 0.1 mM after 5 days relative to untreated control
Triticum aestivum [23] = assay: Inhibition of root length of Triticum aestivum (wheat) at 0.1 mM after 5 days relative to untreated control
Lactuca sativa [24] = assay: Inhibition of germination of Lactuca sativa cv. Nigra (lettuce) at 0.1 mM after 5 days relative to untreated control
Hordeum vulgare [25] = assay: Stimulation of germination of Hordeum vulgare (barley) at 0.1 mM after 5 days relative to untreated control
Lepidium sativum [26] = assay: Inhibition of root length of Lepidium sativum at 0.1 mM after 5 days relative to untreated control; details: 120 h
Triticum aestivum [27] = assay: Stimulation of shoot length of Triticum aestivum (wheat) at 0.1 mM after 5 days relative to untreated control
Allium cepa [28] = assay: Stimulation of germination of Allium cepa (onion) at 0.1 mM after 5 days relative to untreated control
Solanum lycopersicum [29] = assay: Stimulation of root length of Solanum lycopersicum (tomato) at 0.1 mM after 5 days relative to untreated control
Lepidium sativum [30] = assay: Stimulation of root length of Lepidium sativum at 0.1 mM after 5 days relative to untreated control
Hordeum vulgare [31] = assay: Stimulation of root length of Hordeum vulgare (barley) at 0.1 mM after 5 days relative to untreated control
Lactuca sativa [32] = assay: Inhibition of root length of Lactuca sativa cv. Nigra (lettuce) at 0.1 mM after 5 days relative to untreated control
Lactuca sativa [33] = assay: Stimulation of germination of Lactuca sativa cv. Nigra (lettuce) at 0.1 mM after 5 days relative to untreated control
Lactuca sativa [34] = assay: Inhibition of root length of Lactuca sativa cv. Roman (lettuce) at 0.1 mM after 5 days relative to untreated control
Solanum lycopersicum [35] = assay: Inhibition of shoot length of Solanum lycopersicum (tomato) at 0.1 mM after 5 days relative to untreated control; details: 120 h
Triticum aestivum [36] = assay: Stimulation of root length of Triticum aestivum (wheat) at 0.1 mM after 5 days relative to untreated control
Triticum aestivum [37] = assay: Stimulation of germination of Triticum aestivum (wheat) at 0.1 mM after 5 days relative to untreated control
Lepidium sativum [38] = assay: Inhibition of germination of Lepidium sativum at 0.1 mM after 5 days relative to untreated control
Lactuca sativa [39] = assay: Inhibition of shoot length of Lactuca sativa cv. Nigra (lettuce) at 0.1 mM after 5 days relative to untreated control; details: 120 h
Allium cepa [40] = assay: Stimulation of shoot length of Allium cepa (onion) at 0.1 mM after 5 days relative to untreated control
Hordeum vulgare [41] = assay: Inhibition of germination of Hordeum vulgare (barley) at 0.1 mM after 5 days relative to untreated control; details: 120 h
Lepidium sativum [42] = assay: Stimulation of shoot length of Lepidium sativum at 0.1 mM after 5 days relative to untreated control
Allium cepa [43] = assay: Inhibition of germination of Allium cepa (onion) at 0.1 mM after 5 days relative to untreated control; details: 120 h
Solanum lycopersicum [44] = assay: Stimulation of root length of Solanum lycopersicum (tomato) at 1 nM after 5 days relative to untreated control
Allium cepa [45] = assay: Inhibition of germination of Allium cepa (onion) at 10 nM after 5 days relative to untreated control; details: 120 h
Hordeum vulgare [46] = assay: Inhibition of germination of Hordeum vulgare (barley) at 1 uM after 5 days relative to untreated control; details: 120 h

## COC(=O)[C@@]1(C)CCC[C@]2(C)c3cc(=O)occ3CC[C@@H]12
Lactuca sativa [1]
  Activity: inactive
Hordeum vulgare [2]
  Activity: <20%
Hordeum vulgare [3]
  inhibition at 100 µM: 20%
Lepidium sativum [4]
  inhibition at 100 µM: < 20%
Solanum lycopersicum [5]
  inhibition: inactive
Solanum lycopersicum [6]
  inhibition at 100 µM: > 40%
Lepidium sativum [7]
  Activity: inactive
Hordeum vulgare [8]
  inhibition at 100 µM: < 20%
Allium cepa [9]
  inhibition at 100 µM: < 20%
Triticum aestivum [10]
  inhibition: inactive
Solanum lycopersicum [11]
  Activity: <20%
Lactuca sativa [12]
  inhibition: inactive
Allium cepa [13]
  Activity: inactive
Lactuca sativa [14]
  Activity: inactive
Lactuca sativa [15]
  Activity: <20%
Allium cepa [16]
  inhibition: inactive
Solanum lycopersicum [17]
  Activity: inactive
Solanum lycopersicum [18]
  Activity: 58%
Triticum aestivum [19]; 120 h
  inhibition at 100 µM: < 20%
Lactuca sativa [20]
  Activity: inactive
Lactuca sativa [21]
  Activity: inactive
Lactuca sativa [22]
  inhibition: inactive
Triticum aestivum [23]; 120 h
  inhibition at 100 µM: < 20%
Lactuca sativa [24]; 120 h
  inhibition at 100 µM: < 20%
Hordeum vulgare [25]
  Activity: 20%
Lepidium sativum [26]
  inhibition at 100 µM: 20%
Triticum aestivum [27]
  Activity: inactive
Allium cepa [28]
  Activity: <20%
Solanum lycopersicum [29]
  Activity: >40%
Lepidium sativum [30]
  Activity: 20%
Hordeum vulgare [31]
  Activity: 20%
Lactuca sativa [32]
  inhibition: inactive
Lactuca sativa [33]
  Activity: <20%
Lactuca sativa [34]
  inhibition: inactive
Solanum lycopersicum [35]
  inhibition at 100 µM: < 20%
Triticum aestivum [36]
  Activity: <20%
Triticum aestivum [37]
  Activity: <20%
Lepidium sativum [38]
  inhibition: inactive
Lactuca sativa [39]
  inhibition at 100 µM: < 20%
Allium cepa [40]
  Activity: <20%
Hordeum vulgare [41]
  inhibition at 100 µM: 20%
Lepidium sativum [42]
  Activity: <20%
Allium cepa [43]
  inhibition at 100 µM: < 20%

## COC(=O)[C@@]1(C)CCC[C@]2(C)C3=C(CC[C@@H]12)COC(=O)C3
Lactuca sativa [1]
  Activity: <20%
Hordeum vulgare [2]
  Activity: >40%
Hordeum vulgare [3]
  inhibition at 100 µM: > 40%
Lepidium sativum [4]
  inhibition at 100 µM: < 20%
Solanum lycopersicum [5]; 120 h
  inhibition at 100 µM: < 20%
Solanum lycopersicum [6]
  inhibition at 100 µM: > 40%
Lepidium sativum [7]
  Activity: inactive
Hordeum vulgare [8]
  inhibition at 100 µM: > 40%
Allium cepa [9]
  inhibition at 100 µM: < 20%
Triticum aestivum [10]
  inhibition: inactive
Solanum lycopersicum [11]
  Activity: <20%
Lactuca sativa [12]; 120 h
  inhibition at 100 µM: < 20%
Allium cepa [13]
  Activity: inactive
Lactuca sativa [14]
  Activity: <20%
Lactuca sativa [15]
  Activity: <20%
Allium cepa [16]
  inhibition: inactive
Solanum lycopersicum [17]
  Activity: <20%
Triticum aestivum [19]
  inhibition: inactive
Lactuca sativa [20]
  Activity: inactive
Lactuca sativa [21]
  Activity: inactive
Lactuca sativa [22]; 120 h
  inhibition at 100 µM: < 20%
Triticum aestivum [23]
  inhibition: inactive
Lactuca sativa [24]
  inhibition: inactive
Hordeum vulgare [25]
  Activity: >40%
Lepidium sativum [26]
  inhibition at 100 µM: < 20%
Triticum aestivum [27]
  Activity: inactive
Allium cepa [28]
  Activity: 20%
Solanum lycopersicum [44]
  Activity: 56%
Solanum lycopersicum [29]
  Activity: >40%
Lepidium sativum [30]
  Activity: <20%
Hordeum vulgare [31]
  Activity: >40%
Lactuca sativa [32]
  inhibition: inactive
Lactuca sativa [33]
  Activity: inactive
Allium cepa [45]
  inhibition at 0.01 µM: -45%
Lactuca sativa [34]
  inhibition: inactive
Solanum lycopersicum [35]
  inhibition at 100 µM: < 20%
Triticum aestivum [36]
  Activity: inactive
Triticum aestivum [37]
  Activity: inactive
Lepidium sativum [38]
  inhibition: inactive
Lactuca sativa [39]
  inhibition at 100 µM: < 20%
Allium cepa [40]
  Activity: <20%
Hordeum vulgare [46]
  inhibition at 1 µM: -71%
Hordeum vulgare [41]
  inhibition at 100 µM: > 40%
Lepidium sativum [42]
  Activity: <20%
Allium cepa [43]
  inhibition at 100 µM: 20%
